The text below walks through data of patent publication US11291201B2, “Solutions for increasing the stability and shelf life of an organ and tissue preservation solution” (Marizyme, Inc., priority 2013, dated 2022).

How the values of data set [1] were obtained:
The real time stability studies at 5° C. have progressed for about one year thus far.
(§1) The values of the exponents in the equation derived from the exponential fit are the first order rate constant k1 (in units of days^−1).

The conditions of data set [2]: 40° C., Solution B.
Excerpt: as §1

Read-outs that look alike come from different tables or passages of the source.

Consider `N[C@@H](CCC(=O)N[C@@H](CS)C(=O)NCC(=O)O)C(=O)O` [L-glutathione], for which the “time until product specification for L-glutathione approached its limit of expiration” value is reported as “about 100 months” in data set [1] (5° C., from first order fit of 12-15 month real time data) and “approximately 73 days” in data set [2]. Also, in data set [1] (corresponds to Q10 value of 2.94), the “energy of activation for decomposition” value was determined as 19.0 kcal/mol.
